Legend:
[1] = test system: aster leafhopper (Macrosteles fascifrons); assay: whole plant or invertebrate; conditions: 24 h, read-out: percent mortality, ALH
[2] = test system: beet armyworm (Spodoptera exiqua); assay: whole plant or invertebrate; conditions: 144 h, read-out: percent mortality, BAW
[3] = test system: two spotted spider mite (Tetranychus urticae); assay: whole plant or invertebrate; conditions: 72 h, read-out: percent mortality, TSSM
[4] = test system: German cockroach (Blattella germanicus); assay: whole plant or invertebrate; conditions: 240 h, read-out: percent mortality, GECR
[5] = test system: Southern corn rootworm (Diabrotica undecimpuctata howardi Barber); assay: whole plant or invertebrate; conditions: in Zea mays, soil, read-out: percent mortality, SCRW
[6] = test system: peanut root knot nematode (Meloidogyne arenaria); assay: whole plant or invertebrate; conditions: in Arachis hypogaea, read-out: percent mortality, RKN
[7] = test system: cotton aphid (Aphis gossypii); assay: whole plant or invertebrate; conditions: 72 h, read-out: percent mortality, CA
[8] = test system: tobacco budworm (Heliothis virescens); assay: Activity against tobacco budworm (TBW); assay type: in vivo; conditions: 144 h, read-out: percent mortality, TBW
Method: In conducting evaluations of insecticidal activity, each test compound was formulated as a 400 ppm solution, and this solution was then diluted with water to give lesser concentrations. The 400 ppm solution was prepared by combining 19.2 mL of 0.05% solution of Tween 20 (polyoxyethylene (20) sorbitan monolaurate) in water with a solution of 8 mg of the compound in 0.8 mL of acetone/EtOH (9/1).
Activity against tobacco budworm (Heliothis virescens) was evaluated as follows. A general purpose lepidoptera artificial diet was diluted to half strength with a 5% non nutritive agar. 8 mL of this diet material was dispensed into each one ounce diet cup. One hour prior to treatment 18 to 20 eggs were dispensed onto the diet surface. The cups were then sprayed with formulated material through a flat-fan nozzle. The test was run using concentrations of 400 ppm and 50 ppm. Treated cups were air dried prior to sealing with plastic caps. The cups were held for 6 days at room temperature. Activity was then rated based on the total number of live and dead larvae, and on the size of live larvae.

| SMILES | mortality at 400 ppm [1] [%] | mortality at 400 ppm [2] [%] | mortality at 400 ppm [3] [%] | mortality at 400 ppm [4] [%] | mortality at 24 µg/g [5] [%] | mortality at 400 ppm [6] [%] | mortality at 400 ppm [7] [%] | mortality at 400 ppm [8] [%] |
| --- | --- | --- | --- | --- | --- | --- | --- | --- |
| CCc1nccc(NC(=O)Cc2ccc(Oc3ccc(C#N)cn3)cc2)n1 [Compound 13, 4-(5-cyano-2-pyridinyloxy)phenyl-N-(2-ethyl-4-pyrimidinyl)acetamide] | 0 | 100 | 100 | 60 | 0 | 100 | 100 | 100 |
| CCc1nccc(NC(=O)Cc2ccc(Oc3ncc(Br)cn3)cc2)n1 [Compound 14, 4-(5-bromo-2-pyrimidinyloxy)phenyl-N-(2-ethyl-4-pyrimidinyl)acetamide] | 100 | 100 | 0 | 0 | 0 | 0 | 100 | 80 |
| CCc1nccc(NC(=O)Cc2ccc(Oc3ccc([N+](=O)[O-])cc3)cc2)n1 [Compound 53, 4-(4-nitrophenoxy)phenyl-N-(2-ethyl-4-pyrimidinyl)acetamide] | 90 | 100 | 100 | 80 | 100 | 100 | 100 | 100 |
| O=C(Cc1ccc(Oc2ccc(F)cc2)cc1)Nc1ccnc(Cl)n1 [Compound 54, 4-(4-fluorophenoxy)phenyl-N-(2-chloro-4-pyrimidinyl)acetamide] | 0 | 100 | 0 | 0 | 0 | 0 | 0 | 60 |
| CCc1nccc(NC(=O)Cc2ccc(OC(F)(F)C(F)F)cc2)n1 [Compound 55, 4-(1,1,2,2-tetrafluoroethoxy)phenyl-N-(2-ethyl-4-pyrimidinyl)acetamide] | 100 | 100 | 100 | 100 | 100 | 100 | 100 | 80 |
| CC(C)(C)c1nccc(NC(=O)Cc2ccc(Oc3ccc(Cl)cc3)cc2)n1 [Compound 59, 4-(4-chlorophenoxy)phenyl-N-(2-(1,1-dimethylethyl)-4-pyrimidinyl)acetamide] | 80 | 100 | 0 | 100 | 100 | 0 | 100 | 100 |
| CC(C)(C)c1nccc(NC(=O)Cc2ccc(Oc3ccc(C#N)cc3)cc2)n1 [Compound 60, 4-(4-cyanophenoxy)phenyl-N-(2-(1,1-dimethylethyl)-4-pyrimidinyl)acetamide] | 100 | 100 | 100 | 100 | 100 | 100 | 100 | 100 |
| CC(C)(C)c1nccc(NC(=O)Cc2ccc(Oc3ccc(C(F)(F)F)cc3)cc2)n1 [Compound 62, 4-(4-trifluoromethylphenoxy)phenyl-N-(2-(1,1-dimethylethyl)-4-pyrimidinyl)acetamide] | 80 | 100 | 100 | 100 | 100 | 0 | 100 | 100 |
| Cc1nccc(NC(=O)Cc2ccc(Oc3ccc(C(F)(F)F)cc3)cc2)n1 [Compound 63, 4-(4-trifluoromethylphenoxy)phenyl-N-(2-methyl-4-pyrimidinyl)acetamide] | 60 | 100 | 100 | 100 | 0 | 0 | 100 | 100 |
| O=C(Cc1ccc(Oc2ccc(C(F)(F)F)cc2)cc1)Nc1ccnc(C2CC2)n1 [Compound 67, 4-(4-trifluoromethylphenoxy)phenyl-N-(2-cyclopropyl-4-pyrimidinyl)acetamide] | 60 | 100 | 100 | 100 | 100 | 100 | 100 | 100 |
| O=C(Cc1ccc(Oc2ccc(C(F)(F)F)cc2)cc1)Nc1ccncn1 [Compound 68, 4-(4-trifluoromethylphenoxy)phenyl-N-(4-pyrimidinyl)acetamide] | 0 | 0 | 0 | 0 | 0 | 100 | 0 | 100 |
| COCc1nccc(NC(=O)Cc2ccc(Oc3ccc(C(F)(F)F)cc3)cc2)n1 [Compound 70, 4-(4-trifluoromethylphenoxy)phenyl-N-(2-(methoxymethyl)-4-pyrimidinyl)acetamide] | 0 | 100 | 80 | 100 | 0 | 0 | 90 | 60 |
| O=C(Cc1ccc(Oc2cccc(C(F)(F)F)c2)cc1)Nc1ccnc(C2CCC2)n1 [Compound 71, 4-(3-trifluoromethylphenoxy)phenyl-N-(2-cyclobutyl-4-pyrimidinyl)acetamide] | 0 | 100 | 0 | 100 | 0 | 0 | 0 | 60 |
| CCc1nccc(NC(=O)C(=CN(C)C)c2ccc(Oc3ccc(C(F)(F)F)cc3)cc2)n1 [Compound 73, 3-(dimethylamino)-N-(2-ethyl-4-pyrimidinyl)-1-(4-(4-trifluoromethylphenoxy)phenyl)-2-propenamide] | 100 | 100 | 100 | 100 | 100 | 100 | 100 | 100 |
| CCc1nccc(NC(=O)C(=CN(C)C)c2ccc(Oc3ccc(Cl)cc3)cc2)n1 [Compound 76, 3-(dimethylamino)-N-(2-ethyl-4-pyrimidinyl)-1-(4-(4-chlorophenoxy)phenyl)-2-propenamide] | 100 | 100 | 80 | 80 | 100 | 100 | 100 | 100 |
| CCc1nccc(NC(=O)C(=CN(C)C)c2ccc(Oc3ccc(C#N)cc3)cc2)n1 [Compound 78, 3-(dimethylamino)-N-(2-ethyl-4-pyrimidinyl)-1-(4-(4-cyanophenoxy)phenyl)-2-propenamide] | 60 | 100 | 80 | 80 | 0 | 100 | 80 | 100 |
| CCNC=C(C(=O)Nc1ccnc(CC)n1)c1ccc(Oc2ccc(C#N)cc2)cc1 [Compound 79, 3-(ethylamino)-N-(2-ethyl-4-pyrimidinyl)-1-(4-(4-cyanophenoxy)phenyl)-2-propenamide] | 80 | 100 | 100 | 100 | 100 | 100 | 100 | 100 |
| CCc1nccc(NC(=O)C(=CNCC(C)C)c2ccc(Oc3ccc(C#N)cc3)cc2)n1 [Compound 80, 3-(2-methylpropylamino)-N-(2-ethyl-4-pyrimidinyl)-2-(4-(4-cyanophenoxy)phenyl)-2-propenamide] | 60 | 100 | 100 | 100 | 100 | 100 | 100 | 100 |

Source: patent publication US5556859A, “N-(4-pyrimidinyl)amide pesticides” (DowElanco, priority 1994, dated 1996)
